A word on the CC50: it is the concentration that lowers cell viability or growth by half. One may read the EC50 as the midpoint of the concentration-response curve. Low values mean an effect from little substance, high ones a need for much substance.

Data on 14 compounds can be found in patent US9192621B2, “Esters and malonates of SATE prodrugs” (IDENIX PHARMACEUTICALS LLC, priority 2012, dated 2015).

The nature of data set [1]: Cytotoxicity evaluation, CellTiter-Blue Cell Viability Assay. The format is cell-based. Conditions: human, Zluc cells (HCV replicon cells). (In general: Resazurin is reduced to fluorescent resorufin, in cell work by metabolically active cells.)
The next data set has as its system HCV genotype 1b replicon. The data set can be described thus: HCV replicon assay (luciferase reporter, Zluc cells). Conditions: Huh-7-derived Zluc cells, 72 hours of incubation. The format is cell-based.
The test system of the next data set is Zluc cells. Put plainly: Cytotoxicity evaluation, CellTiter-Blue Cell Viability Assay. Format: cell-based. The following applies: read-out: HCV Replicon CC50.
The nature of data set [2]: Stability in simulated gastric and intestinal fluids. Format: in vitro ADME. The following applies: 100 μM, 2 hours at 37° C., percent of the peak area observed at time zero. As to the method:
Stability in simulated gastric and intestinal fluids: Simulated gastric and intestinal fluids containing pepsin and pancreatin respectively were prepared according to the U.S. Pharmacopoeia USP291 procedure (www.pharmacopeia.cn/v29240/usp29nf24s0_ris1s126.html). Test compound (final concentration 100 μM) was incubated in duplicate in the appropriate fluid for 2 hours at 37° C. The samples were quenched with 200 μl cold acetonitrile, vortexed for 30 seconds and then centrifuged at 16,100 g for 10 min. The supernatants were analyzed by HPLC on a C-18 column with UV detection at 252 nm. The time 0 samples were prepared by adding SGF or SIF fluid to the quenching solvent followed by the test compound. Stability of the compound was determined by peak area for the test compound after incubation and calculated as percent of the peak area observed at time zero.

For the compound `CCOc1nc(N)nc2c1ncn2[C@@H]1O[C@H](COP(=O)(NCc2ccccc2)OCCSC(=O)C(C)(C)COC(C)=O)[C@@H](O)[C@@]1(C)F` (single isomer, unassigned) [Compound 101 Diastereomer 1], in data set [1], the CC50 at 72 h was not above 50 µM. In the data set with HCV genotype 1b replicon (Hepatitis C virus), this compound came in with an EC50 not above 0.25 µM.

The compound `CCOc1nc(N)nc2c1ncn2[C@@H]1O[C@H](COP(=O)(NCc2ccccc2)OCCSC(=O)C(C)(C)COC(C)=O)[C@@H](O)[C@@]1(C)F` (single isomer, unassigned) [Compound 101 Diastereomer 2] yielded an EC50 with HCV genotype 1b replicon not above 0.25 µM. `CCCCCC(=O)OCC(C)(C)C(=O)SCCOP(=O)(NCc1ccccc1)OC[C@H]1O[C@@H](n2cnc3c(OCC)nc(N)nc32)[C@](C)(F)[C@@H]1O` (single isomer, unassigned) [Compound 103 Diastereomer 1]: the CC50 at 72 h in data set [1] was more than 50 µM. The EC50 in the data set on HCV genotype 1b replicon (Hepatitis C virus) was not above 0.25 µM. As to `CCCCCC(=O)OCC(C)(C)C(=O)SCCOP(=O)(NCc1ccccc1)OC[C@H]1O[C@@H](n2cnc3c(OCC)nc(N)nc32)[C@](C)(F)[C@@H]1O` (single isomer, unassigned) [Compound 103 Diastereomer 2], the CC50 with Zluc cells was more than 50 µM. As to `CCOc1nc(N)nc2c1ncn2[C@@H]1O[C@H](COP(=O)(NCc2ccccc2)OCCSC(=O)C(C)(C)C(=O)OC(C)C)[C@@H](O)[C@@]1(C)F` (single isomer, unassigned) [Compound 105 Diastereomer 1], the CC50 at 72 h in data set [1] was more than 50 µM. For the same compound, the EC50 in the data set on HCV genotype 1b replicon (Hepatitis C virus) is not above 0.25 µM. Turning to `CCOc1nc(N)nc2c1ncn2[C@@H]1O[C@H](COP(=O)(NCc2ccccc2)OCCSC(=O)C(C)(C)C(=O)OC(C)C)[C@@H](O)[C@@]1(C)F` (single isomer, unassigned) [Compound 105 Diastereomer 2], the CC50 in the data set with Zluc cells was more than 50 µM. In data set [1], `CCOc1nc(N)nc2c1ncn2[C@@H]1O[C@H](COP(=O)(NCc2ccccc2)OCCSC(=O)C(C)(C)COC(C)=O)[C@@H](O)[C@@]1(C)F` (stereo partly drawn) [Compound 101] had a CC50 at 72 h not above 50 µM. In the data set with HCV genotype 1b replicon (Hepatitis C virus), the EC50 is not above 0.25 µM. The compound `CCCC(=O)OCC(C)(C)C(=O)SCCOP(=O)(NCc1ccccc1)OC[C@H]1O[C@@H](n2cnc3c(OCC)nc(N)nc32)[C@](C)(F)[C@@H]1O` (stereo partly drawn) [Compound 102] yielded a CC50 at 72 h in data set [1] not above 50 µM. The same compound showed an EC50 with HCV genotype 1b replicon (Hepatitis C virus) not above 0.25 µM. Compound `CCCCCC(=O)OCC(C)(C)C(=O)SCCOP(=O)(NCc1ccccc1)OC[C@H]1O[C@@H](n2cnc3c(OCC)nc(N)nc32)[C@](C)(F)[C@@H]1O` (stereo partly drawn) [Compound 103] returned a CC50 at 72 h in data set [1] of more than 50 µM. This compound came in with an EC50 in the data set on HCV genotype 1b replicon (Hepatitis C virus) not above 0.25 µM. The like results for `CCOc1nc(N)nc2c1ncn2[C@@H]1OC(COP(=O)(NCc2ccccc2)OCCSC(=O)C(C)(C)COC(=O)C(C)C)[C@@H](O)[C@@]1(C)F` (stereo partly drawn) [Compound 104] were, in that order, not above 50 µM and not above 0.25 µM. Compound `CCOc1nc(N)nc2c1ncn2[C@@H]1O[C@H](COP(=O)(NCc2ccccc2)OCCSC(=O)C(C)(C)C(=O)OC(C)C)[C@@H](O)[C@@]1(C)F` (stereo partly drawn) [Compound 105] came in with a CC50 at 72 h in data set [1] of more than 50 µM. Besides, the EC50 in the data set on HCV genotype 1b replicon (Hepatitis C virus) was not above 0.25 µM. For `CC(=O)OCC(C)(C)C(=O)SCCOP(=O)(NCc1ccccc1)OCC1O[C@@H](n2cnc3c(=O)[nH]c(N)nc32)[C@](C)(O)[C@@H]1O` (stereo partly drawn) [Compound 106] the same measures were not above 50 µM and not above 0.25 µM. In data set [1], `CCCC(=O)OCC(C)(C)C(=O)SCCOP(=O)(NCc1ccccc1)OCC1O[C@@H](n2cnc3c(=O)[nH]c(N)nc32)[C@](C)(O)[C@@H]1O` (stereo partly drawn) [Compound 107] registered a CC50 at 72 h not above 50 µM. The EC50 in the data set with HCV genotype 1b replicon (Hepatitis C virus) was not above 0.25 µM. Further, in data set [2] (simulated gastric fluid containing pepsin), the “Stability SGF” value was “+++ (50<+++<100)”. In addition, in data set [2] (simulated intestinal fluid containing pancreatin), the “Stability SIF” value is reported as “+ (+≦25)”. Consider `CCCCCC(=O)OCC(C)(C)C(=O)SCCOP(=O)(NCc1ccccc1)OCC1O[C@@H](n2cnc3c(=O)[nH]c(N)nc32)[C@](C)(O)[C@@H]1O` (stereo partly drawn) [Compound 108], for which the CC50 at 72 h in data set [1] is not above 50 µM. Also, the half-maximal effective concentration (EC50) with HCV genotype 1b replicon (Hepatitis C virus) is not above 0.25 µM.
